Experimental data reported in US8716292B2, “Riminophenazines with 2-(heteroaryl)amino substituents and their anti-microbial activity” (priority 2010, dated 2014).
≈ marks a conversion by molar mass, not a printed value.

The molecules below were run on Mycobacterium tuberculosis H37Rv strains (assay: In vitro assay for antimicrobial susceptibility (microplate Alamar blue MIC)). Settings: Mycobacterium tuberculosis, H37RV, 7H9, Alamar blue, inhibition ≧90%; read-out: MIC (μg/mL) against H37Rv.
Type: cell-based
Fc1ccc(-n2c3c/c(=N\C4CCOCC4)c(Nc4ncccn4)cc-3nc3ccccc32)cc1 [TBI-1084, 5-(4-Fluorophenyl)-3-(4-tetrahydropyranyl)imino-2-(pyrimidin-2-yl)amino-3,5-dihydrophenazine] showed an MIC of 0.043 µg/mL (≈ 0.0922 µM). CC(C)/N=c1\cc2n(-c3ccc(F)cc3)c3ccccc3nc-2cc1Nc1ncccc1[N+](=O)[O-] [TBI-1052, 5-(4-Fluorophenyl)-3-(1-methylethyl)imino-2-(3-nitro-2-pyridyl)amino-3,5-dihydrophenazine] gave an MIC of 0.022 µg/mL (≈ 0.047 µM). CC(C)/N=c1\cc2n(-c3ccc(Cl)cc3)c3ccccc3nc-2cc1Nc1ccccn1 [TBI-1076, 5-(4-Chlorophenyl)-3-(1-methylethyl)imino-2-(2-pyridyl)amino-3,5-dihydrophenazine] was tested, and the MIC was 0.014 µg/mL (≈ 0.0318 µM). With CC(C)/N=c1\cc2n(-c3ccc(F)cc3)c3ccccc3nc-2cc1Nc1ccccn1 [TBI-1054, 5-(4-Fluorophenyl)-3-(1-methylethyl)imino-2-(2-pyridyl)amino-3,5-dihydrophenazine] the MIC was 0.446 µg/mL (≈ 1.05 µM). With CC(C)/N=c1\cc2n(-c3ccc(F)c(F)c3)c3ccccc3nc-2cc1Nc1ccccn1 [TBI-1436, 5-(3,4-Difluorophenyl)-3-(1-methylethyl)imino-2-(2-pyridyl)amino-3,5-dihydrophenazine] the MIC was 0.028 µg/mL (≈ 0.0634 µM).

Same assay, conditions: Mycobacterium tuberculosis, H37RV, in vitro, Mycobacterium tuberculosis H37Rv strains; read-out: MIC (μg/mL) against H37Rv
In the case of COc1ncccc1Nc1cc2nc3ccccc3n(-c3ccc(Br)cc3)c-2c/c1=N\C1CCC1 [TBI-520], the MIC is reported as 0.043 µg/mL (≈ 0.0817 µM). COc1ncccc1Nc1cc2nc3ccc(F)cc3n(-c3ccc(OC(F)(F)F)cc3)c-2c/c1=N\C1CCOCC1 [TBI-855] gave an MIC of 0.193 µg/mL (≈ 0.333 µM). Work on Brc1ccc(-n2c3c/c(=N\C4CCCCC4)c(Nc4cccnc4)cc-3nc3ccccc32)cc1 [TBI-089, 5-(4-Bromophenyl)-3-cyclohexylimino-2-(3-pyridyl)amino-3,5-dihydrophenazine] yielded an MIC of 0.021 µg/mL (≈ 0.04 µM). In the case of COC1CCC(/N=c2\cc3n(-c4ccc(C)cc4)c4ccccc4nc-3cc2Nc2cccnc2C)CC1 (centres unmarked) [TBI-322, 5-(4-Methylphenyl)-3-(4-methoxycyclohexyl)imino-2-(2-methyl-3-pyridyl)amino-3,5-dihydrophenazine], the MIC is reported as 0.092 µg/mL (≈ 0.183 µM). Molecule c1ccc(-n2c3c/c(=N\C4CCN(C5CCCC5)CC4)c(Nc4cccnc4)cc-3nc3ccccc32)cc1 [TBI-060, 5-Phenyl-3-(N-cyclopentyl-4-piperidyl)imino-2-(3-pyridyl)amino-3,5-dihydrophenazine] has an MIC of 1 µg/mL (≈ 1.94 µM). For Clc1ccc(-n2c3c/c(=N\C4CCCCC4)c(Nc4cccnc4)cc-3nc3ccccc32)cc1Cl [TBI-350, 5-(3,4-Dichlorophenyl)-3-cyclohexylimino-2-(3-pyridyl)amino-3,5-dihydrophenazine], the MIC was 0.031 µg/mL (≈ 0.0603 µM). Cc1ccc(Nc2cc3nc4ccccc4n(-c4ccc(F)cc4)c-3c/c2=N\C2CCN(CC(C)C)CC2)cn1 [TBI-904, 5-(4-Fluorophenyl)-3-(N-isobutyl-4-piperidyl)imino-2-(6-methyl-3-pyridyl)amino-3,5-dihydrophenazine] showed an MIC of 0.016 µg/mL (≈ 0.0299 µM). For COC1CCC(/N=c2\cc3n(-c4ccc(Cl)cc4)c4ccccc4nc-3cc2Nc2cccnc2C)CC1 (centres unmarked) [TBI-453, 5-(4-Chlorophenyl)-3-(4-methoxycyclohexyl)imino-2-(2-methyl-3-pyridyl)amino-3,5-dihydrophenazine], the MIC was 0.011 µg/mL (≈ 0.021 µM). For COc1ncccc1Nc1cc2nc3ccccc3n(-c3cccc(OC(F)(F)F)c3)c-2c/c1=N\C1CCCCC1 [TBI-1040, 5-(3-Trifluoromethoxyphenyl)-3-cyclohexylimino-2-(2-methoxy-3-pyridyl)amino-3,5-dihydrophenazine], the MIC was 0.086 µg/mL (≈ 0.154 µM). Cc1ccc(-n2c3c/c(=N\C(C)C)c(Nc4ccc(C)nc4)cc-3nc3ccccc32)cc1 [TBI-315, 5-(4-Methylphenyl)-3-(1-methylethyl)imino-2-(6-methyl-3-pyridyl)amino-3,5-dihydrophenazine] gave an MIC of 0.057 µg/mL (≈ 0.131 µM). Brc1ccc(-n2c3c/c(=N\C4CCC4)c(Nc4cccnc4)cc-3nc3ccccc32)cc1 [TBI-098, 5-(4-Bromophenyl)-3-cyclobutylimino-2-(3-pyridyl)amino-3,5-dihydrophenazine] was tested, and the MIC was 0.028 µg/mL (≈ 0.0564 µM). Cc1ncccc1Nc1cc2nc3ccccc3n(-c3cccc(OC(F)(F)F)c3)c-2c/c1=N\C(C)C [TBI-1032, 5-(3-Trifluoromethoxyphenyl)-3-(1-methylethyl)imino-2-(2-methyl-3-pyridyl)amino-3,5-dihydrophenazine] gave an MIC of 0.107 µg/mL (≈ 0.213 µM). In the case of COc1ncccc1Nc1cc2nc3ccccc3n(-c3ccc(NC(C)=O)cc3)c-2c/c1=N\C1CCCCC1 [TBI-1223, 5-(4-Acetamidophenyl)-3-cyclohexylimino-2-(2-methoxy-3-pyridyl)amino-3,5-dihydrophenazine], the MIC is reported as 1.49 µg/mL (≈ 2.79 µM). In the case of Cc1ncccc1Nc1cc2nc3ccccc3n(-c3ccc(F)cc3)c-2c/c1=N\C1CCSCC1 [TBI-1043, 5-(4-Fluorophenyl)-3-(4-tetrahydrothiopyranyl)imino-2-(2-methyl-3-pyridyl)amino-3,5-dihydrophenazine], the MIC is reported as 0.021 µg/mL (≈ 0.0424 µM). Work on FC(F)(F)c1ccc(-n2c3c/c(=N\CCN4CCOCC4)c(Nc4cccnc4)cc-3nc3ccccc32)cc1 [TBI-690, 5-(4-Trifluoromethylphenyl)-3-(2-morpholinoethyl)imino-2-(3-pyridyl)amino-3,5-dihydrophenazine] yielded an MIC of 0.125 µg/mL (≈ 0.23 µM). Work on COc1ncccc1Nc1cc2nc3ccccc3n(-c3ccc(C)cc3)c-2c/c1=N\C1CC1 [TBI-339, 5-(4-Methylphenyl)-3-cyclopropylimino-2-(2-methoxy-3-pyridyl)amino-3,5-dihydrophenazine] yielded an MIC of 0.033 µg/mL (≈ 0.0737 µM). COc1ncccc1Nc1cc2nc3ccccc3n(-c3ccccc3)c-2c/c1=N\C1CCN(C)CC1 [TBI-062, 5-Phenyl-3-(N-methyl-4-piperidyl)imino-2-(2-methoxy-3-pyridyl)amino-3,5-dihydrophenazine] was tested, and the MIC was 0.061 µg/mL (≈ 0.124 µM). Work on COc1ccc(Nc2cc3nc4ccccc4n(-c4ccc(C(F)(F)F)cc4)c-3c/c2=N\C2CC2)cn1 [TBI-736, 5-(4-Trifluoromethylphenyl)-3-cyclopropylimino-2-(6-methoxy-3-pyridyl)amino-3,5-dihydrophenazine] yielded an MIC of 0.224 µg/mL (≈ 0.447 µM). In the case of Cc1ccncc1Nc1cc2nc3ccccc3n(-c3ccc(F)cc3)c-2c/c1=N\C1CC1 [TBI-940, 5-(4-Fluorophenyl)-3-cyclopropylimino-2-(4-methyl-3-pyridyl)amino-3,5-dihydrophenazine], the MIC is reported as 0.062 µg/mL (≈ 0.142 µM). For COc1ncccc1Nc1cc2nc3ccccc3n(-c3ccc(OC(F)(F)F)cc3)c-2c/c1=N\C1CCCCC1 [TBI-365, 5-(4-Trifluoromethoxyphenyl)-3-cyclohexylimino-2-(2-methoxy-3-pyridyl)amino-3,5-dihydrophenazine], the MIC was 0.018 µg/mL (≈ 0.0322 µM). Cc1ccc(Nc2cc3nc4ccccc4n(-c4ccc(C(F)(F)F)cc4)c-3c/c2=N\C2CCC2)cn1 [TBI-738, 5-(4-Trifluoromethylphenyl)-3-cyclobutylimino-2-(6-methyl-3-pyridyl)amino-3,5-dihydrophenazine] gave an MIC of 0.029 µg/mL (≈ 0.0581 µM). Cc1cncc(Nc2cc3nc4ccccc4n(-c4ccccc4)c-3c/c2=N\C2CCOCC2)c1 [TBI-083, 5-Phenyl-3-(4-tetrahydropyranyl)imino-2-(5-methyl-3-pyridyl)amino-3,5-dihydrophenazine] showed an MIC of 0.049 µg/mL (≈ 0.106 µM). Molecule CSc1cccc(-n2c3c/c(=N\C(C)C)c(Nc4cccnc4)cc-3nc3ccccc32)c1 [TBI-454, 5-(3-Methylthiophenyl)-3-(1-methylethyl)imino-2-(3-pyridyl)amino-3,5-dihydrophenazine] has an MIC of 0.213 µg/mL (≈ 0.472 µM). COc1ncccc1Nc1cc2nc3ccccc3n(-c3ccc(Cl)cc3Cl)c-2c/c1=N\C(C)C [TBI-369, 5-(2,4-Dichlorophenyl)-3-(1-methylethyl)imino-2-(2-methoxy-3-pyridyl)amino-3,5-dihydrophenazine] gave an MIC of 0.104 µg/mL (≈ 0.206 µM). Cc1ncccc1Nc1cc2nc3ccccc3n(-c3ccccc3)c-2c/c1=N\C1CCCCC1 [TBI-077, 5-Phenyl-3-cyclohexylimino-2-(2-methyl-3-pyridyl)amino-3,5-dihydrophenazine] showed an MIC of 0.016 µg/mL (≈ 0.0348 µM). In the case of CC(C)/N=c1\cc2n(-c3ccccc3C(F)(F)F)c3ccccc3nc-2cc1Nc1cccnc1 [TBI-720, 5-(2-Trifluoromethylphenyl)-3-(1-methylethyl)imino-2-(3-pyridyl)amino-3,5-dihydrophenazine], the MIC is reported as 0.214 µg/mL (≈ 0.452 µM). Fc1ccc(-n2c3c/c(=N\C4CCOCC4)c(Nc4cccnc4)cc-3nc3ccccc32)cc1 [TBI-681, 5-(4-Fluorophenyl)-3-(4-tetrahydropyranyl)imino-2-(3-pyridyl)amino-3,5-dihydrophenazine] gave an MIC of 0.06 µg/mL (≈ 0.129 µM). COc1ccc2nc3cc(Nc4cccnc4OC)/c(=N/C4CCC(OC)CC4)cc-3n(-c3ccc(Cl)cc3)c2c1 (centres unmarked) [TBI-941, 7-Methoxy-5-(4-chlorophenyl)-3-(4-methoxycyclohexyl)imino-2-(2-methoxy-3-pyridyl)amino-3,5-dihydrophenazine] showed an MIC of 0.06 µg/mL (≈ 0.105 µM). With CC(=O)Nc1ccc(Nc2cc3nc4ccccc4n(-c4ccc(C(F)(F)F)cc4)c-3c/c2=N\C2CCC(O)CC2)cn1 (centres unmarked) [TBI-714, 5-(4-Trifluoromethylphenyl)-3-(4-hydroxycyclohexyl)imino-2-(6-acetamino-3-pyridyl)amino-3,5-dihydrophenazine] the MIC was 0.686 µg/mL (≈ 1.17 µM). Work on Cc1ccc(-n2c3c/c(=N\CCN4CCOCC4)c(Nc4ccc(C)nc4)cc-3nc3ccccc32)cc1 [TBI-318, 5-(4-Methylphenyl)-3-(2-morpholinoethyl)imino-2-(6-methyl-3-pyridyl)amino-3,5-dihydrophenazine] yielded an MIC of 0.087 µg/mL (≈ 0.172 µM). With Clc1ccc(-n2c3c/c(=N\C4CCCCC4)c(Nc4cccnc4)cc-3nc3ccccc32)c(Cl)c1 [TBI-368, 5-(2,4-Dichlorophenyl)-3-cyclohexylimino-2-(3-pyridyl)amino-3,5-dihydrophenazine] the MIC was 0.054 µg/mL (≈ 0.105 µM). For Cc1ncccc1Nc1cc2nc3ccccc3n(-c3ccccc3)c-2c/c1=N\C1CCOCC1 [TBI-075, 5-Phenyl-3-(4-tetrahydropyranyl)imino-2-(2-methyl-3-pyridyl)amino-3,5-dihydrophenazine], the MIC was 0.328 µg/mL (≈ 0.711 µM).

Same assay, conditions: in vitro, Mycobacterium tuberculosis H37Rv strains
For COc1ncccc1Nc1cc2nc3ccc(F)cc3n(-c3ccc(Cl)cc3)c-2c/c1=N\C(C)C [TBI-926, 7-Fluoro-5-(4-chlorophenyl)-3-(1-methylethyl)imino-2-(2-methoxy-3-pyridyl)amino-3,5-dihydrophenazine], the “MIC (μg/mL) against H37Rv” value was 0.103 µg/mL (≈ 0.211 µM).
